Like-named read-outs stand apart in the source and are kept apart here.
Assays:
[1] = Plasma stability assay, rat plasma; format: in vitro ADME
[2] = Microsomal stability, rat liver microsomes; format: in vitro ADME; details: pH 7.4; rat liver microsomes
Protocol: (§1) . Zero time points were prepared by adding ice-cold methanol to a mixture of the compound with cofactors prior to the addition of microsomes. […]. Intrinsic clearance (CLint) was calculated using the following formula: [drawing 1] where V = incubation volume per milligram of microsomal protein (μL/mg) and t1/2 = microsomal half-life.

in vitro [3] = format: in vitro ADME; details: human, Caco-2
Protocol: A Transwell system consisting of two compartments separated by a monolayer of differentiated Caco-2 cells was employed for the intestinal permeability evaluation. Thanks to the ability of Caco-2 cells to become polarized, bidirectional transport (A–B and B–A) could be measured and the efflux ratio calculated.
The transepithelial bidirectional transport of tested compounds (5 μM, pH 7.4/7.4) across the Caco-2 monolayers was studied using the BD BioCoat HTS Caco-2 assay system (BD Biosciences, Bedford, MA) as described in detail elsewhere.[47] Aliquots were collected from the donor and acceptor compartment at the end of the transport period (3 h), the integrity of monolayers was verified using Lucifer Yellow dye, and the compounds were quantified using LC–MS/MS (Triple Quad 6500+, Sciex). The apparent permeability coefficient (Papp) was calculated from the following equation: Papp = (dQ/dt)/C0 × A, where dQ/dt is the rate of absorption of the drug across the cells, C0 is the donor compartment concentration at time zero, and A is the area of the monolayer. The efflux ratio was expressed as (Papp B–A)/(Papp A–B). Recovery (%) was determined as (total compound mass in donor and receiver compartments at the end of the incubation/initial compound mass in the donor compartment) × 100.

[4] = Cytotoxicity assay (CellTiter-Glo) on normal human dermal fibroblasts; format: cell-based; details: normal human dermal fibroblasts (NHDF)
Protocol: The cytotoxicity of the compounds was evaluated in nontumor normal human dermal fibroblasts (NHDF) purchased from ATCC (PCS-201-012, Manassas, VA, USA). The cells were negatively tested for the presence of mycoplasma (cat. #: LT07-318 MycoAlert Mycoplasma Detection kit, Lonza). The cells were cultivated in DMEM high glucose 4.5 g/L medium (cat. #: R8758, Merck, Germany). The medium was supplemented with 10% fetal bovine serum (cat. #: F7524, Merck, Germany; inactivated at 56 °C for 30 min) and 1.0% of L-glutamine (cat. #: G7513, Merck, Germany) without antibiotics. Cells were seeded in 384-well format white micro plates (cat. #: 164610, Nunc, Thermo Fisher Scientific, USA) at a concentration of 60,000 cells per mL and left to rest overnight. Next day, 1 and 10 μM concentrations of the tested compounds were added in triplicates. The cells were cultivated at 37 °C and 5% CO2 for 72 h after which a luminescent cell viability assay (CellTiter-Glo 2.0, cat. #: Promega, Madison, USA) was added. The plate was left on a shaker (350 rpm) in the dark for 20 min at RT. Luminescence was measured by a Spark multimode reader from Tecan (Tecan Group Ltd., Switzerland). The signal of the compound-treated cells was related to the value of the untreated control, which was arbitrarily set to 100% viability.

D2 receptor = details: cited from earlier work
[5] = Plasma stability assay, human plasma; format: in vitro ADME; details: pooled plasma; human plasma, 5 μM, 37 °C; read-out: Plasma stability % remaining at 6 h, hum
Protocol: […] The reactions were terminated by adding 4 vol of ice-cold methanol, and the samples were then mixed vigorously, frozen at −20 °C for 1 h, and left overnight at 8 °C. After that, the samples were centrifuged, and the supernatant was analyzed by means of LC–MS/MS Sciex 6500 triple quadrupole (Sciex, Framingham, MA, USA). Zero time points were prepared by adding ice-cold methanol to the compound prior to the addition of the plasma.

D3 receptor = details: cited from earlier work
[6] = Microsomal stability, human liver microsomes; format: in vitro ADME; details: pooled liver microsomes, pH 7.4; human liver microsomes 0.5 mg/mL, 10 μM compound; read-out: Microsomal stability CLint, hum
Protocol: as §1

P-gp (human MDR1) = assay: in vitro; details: dog, MDCK-MDR1
Protocol: (§2) Canine MDR1 Knockout, Human MDR1 Knockin MDCKII cells (Sigma-Aldrich) were employed to estimate CNS permeability of the compounds. Briefly, the cells were seeded at a density of 30,000 cells per 24-well plate insert of the Transwell sandwich (CellQART, SABEU GmbH&Co.KG, Germany). They were left to differentiate for 5 days with medium exchange every other day. […] The treated cells were then returned to the incubator for 2 h at 37 °C. After that, samples were collected from both apical inserts and basolateral wells and analyzed using LC–MS (Triple Quad 6500+, Sciex). LY permeation was used to check for the integrity of monolayer in each sample. […] Only wells displaying LY permeability <2% were qualified for compound transport quantification. Apparent permeability coefficients (Papp's), efflux ratios, and recoveries for the compounds were calculated as described in Section 4.2.8. The data represent means ± SD of two independent experiments performed in triplicate.

in vitro [7] = details: dog, MDCK-MDR1
Protocol: as §2

[8] = 10 uM, read-out: NHDF viability at 10 uM (supplement csv)
[9] = 10 μM, untreated control = 100%, read-out: NHDF Viability 10 μM

Protocol for MDCKII-MDR1 cells: as §2

| recovery at 3 h, 5 µM (in vitro [3]) | Papp A→B at 3 h, 5 µM (in vitro [3]; 5 μM, pH 7.4/7.4, 3 h, read-out: Caco-2 permeability Papp A–B) | recovery (B–A) in MDCKII-MDR1 cells (MDCKII-MDR1 cells; B–A direction) | P-gp transporter substrate (MDCKII-MDR1 cells; MDCKII-MDR1 cells) | Papp A→B at 2 h, 10 µM (P-gp (human MDR1)) | Papp B→A at 2 h, 10 µM (P-gp (human MDR1)) | recovery at 2 h, 10 µM (in vitro [7]) | SMILES | remaining at 6 h, 5 μM [1] | microsomal CLint at 10 µM [2] | Papp B→A at 3 h, 5 µM (in vitro [3]; 5 μM, pH 7.4/7.4, 3 h, read-out: Caco-2 permeability Papp B–A) | viability at 72 h, 1 µM [4] | viability at 72 h, 10 µM [4, 8] | viability at 72 h, 10 µM [4, 9] | D2 receptor pKi (D2 receptor) | remaining at 6 h, 5 μM [5] | affinity toward the D3 receptor (D3 receptor) | microsomal CLint at 10 µM [6] |
| --- | --- | --- | --- | --- | --- | --- | --- | --- | --- | --- | --- | --- | --- | --- | --- | --- | --- |
|  |  |  |  |  |  |  | COC(=O)[C@@H]1[C@H]2C[C@H]3c4[nH]c5ccccc5c4CCN3C[C@@H]2CC[C@@H]1O [Compound 1, Yohimbine, reference compound] | 90 ± 2% | 2 µL/min/mg | 23 ± 8 ×10⁻⁶ cm/s | 112% | 105% | 105% | 6.4 | 106% | negligible | 7 ± 1 µL/min/mg |
| 103% | 3 ± 1 ×10⁻⁶ cm/s | 98% | substrate for the P-gp transporter | 0.9 ×10⁻⁶ cm/s | 3.5 ± 1.4 ×10⁻⁶ cm/s | 100% | N[C@H]1C[C@H](OC(=O)[C@@H]2[C@H]3C[C@H]4c5[nH]c6ccccc6c5CCN4C[C@@H]3CC[C@@H]2O)C1 [Compound 4n, 17-α-Hydroxyyohimban-16-α-carboxylic Acid trans-3-Aminocyclobutyl Ester] | 84 ± 2% |  |  | 93% | 89% | 89% |  | 99% |  | 2 ± 1 µL/min/mg |
